Test results as given in BindingDB's records for doi:10.1016/S0960-894X(00)80679-4 (1993).
pIC50: −log10 of the molar value.

Molecular target: Gastrin/cholecystokinin type B receptor (Cavia porcellus)
Test: In vitro binding affinity against Cholecystokinin type B receptor in guinea pig brain membranes

How did the pIC50 turn out when `CCCC[C@H](NC(=O)[C@H](Cc1ccc(OS(=O)(=O)O)cc1)NC(=O)OC(C)(C)C)C(=O)NCC(=O)N[C@H](Cc1c[nH]c2ccccc12)C(=O)N[C@@H](CCCC)C(=O)N[C@@H](CC(=O)O)C(=O)NCCc1ccccc1` [(S)-3-{(S)-2-[(R)-2-(2-{(S)-2-[(S)-2-tert-Butoxycarbonylamino-3-(4-sulfooxy-phenyl)-propionylamino]-hexanoylamino}-acetylamino)-3-(1H-indol-3-yl)-propionylamino]-hexanoylamino}-N-phenethyl-succinamic acid] was run?
The pIC50 was 6.00.
